In patent US5663346A, “Substituted azaindolylidene compounds and process for their preparation” (Pharmacia S.p.A., priority 1994, dated 1997) one finds IC50 data, which are given here for 2 compounds.

In assay [1] the target is p45 v-abl tyrosine kinase. Description: p45 v-abl Kinase Assay ((Val5)-Angiotensin II phosphorylation). It is filed as biochemical, Abelson murine leukemia virus. The note with it: in-vitro; (Val5)-Angiotensin II 2 mM, ATP 50 mM, 40 ng abl-kinase, pH 8.0; read-out: Inhibition of p-45 v-abl kinase, IC50. The protocol: p45 v-abl Kinase Purification
The enzyme used in our test was the p45 v-abl tyrosine kinase which represents the catalytic domain of the Abelson tyrosine kinase (isolated from the Abelson murine leukemia virus). The p45 v-abl kinase was produced and isolated as described by Wang et al. in J. Biol. chem 260, 64 (1985) and by Ferguson et al. in J. Biol. Chem 260, 3652 (1985) and in Biochem J. 257, 321 (1989).
(Val^5 )-Angiotensin II phosphorylation was performed by incubation with 40 ng of purified abl-kinase and (g-^32 p)-ATP, in […] of buffer containing Tris-HCl 25 mM, Ph 8.0, MgCl2 10 Mm and dithiothreitol 0.1 Mm (kinase buffer). The reaction mixture was incubated for the indicated time at […] and the reaction stopped by adding […] of 5% trichloroacetic acid. After a brief incubation on ice, tubes were centrifuged. The supernatants were spotted on phosphocellulose paper squares (Whatman P-81) and washed extensively in acetic acid. The radioactivity bound to dried phosphocellulose squares was measured in a liquid scintillation counter. IC50 values were. calculated from triplicated determinations of each experimental point. Each inhibitor was tested at concentrations ranging from […] in the presence of fixed concentrations of peptide (2 mM) and ATP (50 mM).

Assay [2] concerns K562 cells. Description: K562 cell Growth Inhibition Assay. It is filed as cell-based. The note with it: Homo sapiens, 66 h incubation, [3H]-Thymidine incorporation, with or without 10% foetal calf serum. The protocol: In-vivo Assay K562 cell Growth Inhibition Assay 1 ml of K562 cells, grown in suspension, were incubated for 66 h with or without 10% foetal calf serum in the presence of 1 mCi of [^3 H]-Thymidine. Cells were harvested, washed three times in cold PBS and treated with 5% trichloroacetic acid for 5 min. on ice. […] The extract was counted in a liquid scintillation counter. The inhibitory activity data for a representative compound according to the present invention, obtained both in the in-vitro p45 v-abl kinase assay and in the in-vivo human chronic myeloid leukemia K562 cell growth inhibition assay described above, are set out in Table 1.

For `Nc1ccc2c(c1)C(=Cc1c[nH]c3ncccc13)C(=O)N2` [5-amino-3-[(7-azaindol-3-yl)methylen]-2-oxindole ditrifluoroacetate], the IC50 (commonly the midpoint of a concentration-inhibition curve) in assay [1] came out at 90 nM; in assay [2], 8800 nM.
Consider `N#Cc1ccc2c(c1)C(=Cc1c[nH]c3ncccc13)C(=O)N2` [5-cyano-3-[(7-azaindol-3-yl)methylen]-2-oxindole], for which the half-inhibitory concentration (IC50) in assay [1] amounted to 980 nM; in assay [2], 2520 nM.
